Measurements from the NIST ThermoML archive (doi:10.1021/je8004613).

How the values were obtained:
[1] = excess molar enthalpy (molar enthalpy of mixing); xn = mol fraction of the nth substance listed; conditions: 298.15 K, 101 kPa, Liquid
[2] = 101.33 kPa, Liquid; for speed of sound: Pulse-echo method; for mass density: Vibrating tube method

CCCCCCCC [octane] + CCCCO
[1]
Conditions | excess molar enthalpy [kcal/mol]
x2 = 0.03632 | 0.0772
x2 = 0.0645 | 0.102
x2 = 0.1182 | 0.128
x2 = 0.1568 | 0.137
x2 = 0.2031 | 0.152
x2 = 0.2488 | 0.158
x2 = 0.299 | 0.163
x2 = 0.345 | 0.164
x2 = 0.4028 | 0.163
x2 = 0.4499 | 0.16
x2 = 0.5029 | 0.152
x2 = 0.6034 | 0.134
x2 = 0.6988 | 0.112
x2 = 0.7979 | 0.0817
x2 = 0.9005 | 0.0435
x2 = 0.9493 | 0.0225

CCCCCCCC [octane]
[2]
Conditions | mass density [kg/m3] | speed of sound [m/s]
288.15 K | 706.58 | 1213.6
293.15 K | 702.57 | 1193
298.15 K | 698.55 | 1171.9
303.15 K | 694.48 | 1151
308.15 K | 690.42 | 1130.3
